Measurements taken from ChEMBL document CHEMBL1201862, “PubChem BioAssay data set” (2004).
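Grown in 96-well plates, cells were treated for 48 hours with each compound at five concentrations. Insufficient inhibition: endpoint recorded as highest concentration tested. The concentration for 50% growth inhibition is given as GI50.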 The source made the active and inactive calls. No stated cut-off is given here; in the data, active = GI50 up to about 1.1 µM and inactive = higher.

Assays:
Test in all cases: NCI anticancer screen, dose series, 48 h
OVCAR-5 = tested on: OVCAR-5
MCF7 = tested on: MCF7
SK-MEL-2 = tested on: SK-MEL-2
U-251 = tested on: U-251
KM12 = tested on: KM12
HL-60 = tested on: HL-60
SK-MEL-5 = tested on: SK-MEL-5
UACC-62 = tested on: UACC-62
NCI-H522 = tested on: NCI-H522
PC-3 = tested on: PC-3
Hs-578T = tested on: Hs-578T
UACC-257 = tested on: UACC-257
Malme-3M = tested on: Malme-3M
OVCAR-4 = tested on: OVCAR-4
HT-29 = tested on: HT-29
MDA-N = tested on: MDA-N
SF-268 = tested on: SF-268
UO-31 = tested on: UO-31
SR = tested on: SR
SF-539 = tested on: SF-539

Structure (SMILES)	GI50 (OVCAR-5)	GI50 (MCF7)	GI50 (SK-MEL-2)	GI50 (U-251)	GI50 (KM12)	GI50 (HL-60)	GI50 (SK-MEL-5)	GI50 (UACC-62)	GI50 (NCI-H522)	GI50 (PC-3)	GI50 (Hs-578T)	GI50 (UACC-257)	GI50 (Malme-3M)	GI50 (OVCAR-4)	GI50 (HT-29)	GI50 (MDA-N)	GI50 (SF-268)	GI50 (UO-31)	GI50 (SR)	GI50 (SF-539)
Cc1cccc(N2C(=O)C3c4[nH]c5ccccc5c4C4CCC(C(C)(C)C)CC4C3C2=O)c1 (stereo unspecified)	16.8 µM (inactive)	12 µM (inactive)	18.2 µM (inactive)	17.3 µM (inactive)	11.9 µM (inactive)	46.3 µM (inactive)	15.1 µM (inactive)	19.5 µM (inactive)	11.1 µM (inactive)	12.4 µM (inactive)	9.98 µM (inactive)	18.7 µM (inactive)	13 µM (inactive)	12.9 µM (inactive)	13.5 µM (inactive)	15.3 µM (inactive)	4.27 µM (inactive)	15.3 µM (inactive)		
CCCCCCN(CCCCCC)CCC(=O)c1ccc2cc(Br)c3ccccc3c2c1	78 µM (inactive)	20.2 µM (inactive)	27.3 µM (inactive)	36.2 µM (inactive)	11.5 µM (inactive)	10.8 µM (inactive)	26.1 µM (inactive)	25.8 µM (inactive)	25.5 µM (inactive)	31.3 µM (inactive)	33.3 µM (inactive)	64.7 µM (inactive)	89.1 µM (inactive)		66.1 µM (inactive)		28.1 µM (inactive)	26.7 µM (inactive)	0.318 µM (active)	21.3 µM (inactive)
CN(C)C(=S)N/N=C(\C(=N/NC(=S)N(C)C)c1ccccn1)c1ccccn1	14 µM (inactive)	1.66 µM (inactive)	10.7 µM (inactive)	3.99 µM (inactive)	4.82 µM (inactive)		9.02 µM (inactive)	6.3 µM (inactive)	2.65 µM (inactive)	4.26 µM (inactive)	1.01 µM (active)	10.7 µM (inactive)	12.9 µM (inactive)	7.28 µM (inactive)	3.22 µM (inactive)	11.2 µM (inactive)	6.14 µM (inactive)	6.7 µM (inactive)		25.5 µM (inactive)
O=C(O)CCCCCOc1cccnc1/C=N/NC1=NCCN1	> 100 µM (inactive)		> 100 µM (inactive)	> 100 µM (inactive)	> 100 µM (inactive)	> 100 µM (inactive)	> 100 µM (inactive)	> 100 µM (inactive)	> 100 µM (inactive)			> 100 µM (inactive)	> 100 µM (inactive)	> 100 µM (inactive)	> 100 µM (inactive)		> 100 µM (inactive)	> 100 µM (inactive)	> 100 µM (inactive)	> 100 µM (inactive)
CC#CC(O)(C(=O)OC1CCC2CCC1N2C)C1CCCC1 (stereo unspecified)	> 10 µM (inactive)	> 100 µM (inactive)		> 10 µM (inactive)	> 100 µM (inactive)		> 100 µM (inactive)	> 100 µM (inactive)	> 100 µM (inactive)	> 100 µM (inactive)		> 100 µM (inactive)	> 100 µM (inactive)		> 100 µM (inactive)	> 100 µM (inactive)	> 100 µM (inactive)	> 100 µM (inactive)	> 100 µM (inactive)	> 100 µM (inactive)
COc1cc(CC2CCc3nc(N)nc(N)c3C2)cc(OC)c1OC (stereo unspecified)	1.36 µM (inactive)	0.527 µM (active)	> 38.1 µM (inactive)	> 35.2 µM (inactive)	1.18 µM (inactive)	0.1 µM (active)	0.0834 µM (active)	0.145 µM (active)	0.505 µM (active)	0.13 µM (active)	> 60.5 µM (inactive)	24.8 µM (inactive)	0.851 µM (active)	> 45.6 µM (inactive)	> 34.8 µM (inactive)		0.174 µM (active)		0.236 µM (active)	0.966 µM (active)
O=C(O)CSc1nnc(-c2ccc(O)cc2)[nH]1	> 100 µM (inactive)		> 100 µM (inactive)	> 100 µM (inactive)	> 100 µM (inactive)	> 100 µM (inactive)	> 100 µM (inactive)	> 100 µM (inactive)	> 100 µM (inactive)			> 100 µM (inactive)	> 100 µM (inactive)	> 100 µM (inactive)	> 100 µM (inactive)		> 100 µM (inactive)	> 100 µM (inactive)	> 100 µM (inactive)	> 100 µM (inactive)
O=C(/C(=N/Nc1cn[nH]c(=O)c1Cl)c1ccccc1)c1ccccc1		45.8 µM (inactive)	46 µM (inactive)	26.9 µM (inactive)	12.8 µM (inactive)	16.8 µM (inactive)	28.2 µM (inactive)	16 µM (inactive)	17.1 µM (inactive)	27.5 µM (inactive)		29.2 µM (inactive)	52.7 µM (inactive)	41.7 µM (inactive)	20 µM (inactive)	4.99 µM (inactive)		22.6 µM (inactive)		22.6 µM (inactive)
